# Measurements: publication doi:10.1101/2020.06.11.145995v1 (biorxiv, 2020)
# Like-named read-outs stand apart in the source and are kept apart here.
# Columns and labels:
# Assay in all cases: biochemical
# AKT3 = AKT3 (Homo sapiens, UniProt Q9Y243)
# ASK1 = ASK1 (Homo sapiens, UniProt Q99683)
# CAMK1G = CAMK1G (Homo sapiens, UniProt Q96NX5)
# CAMKK1 = CAMKK1 (Homo sapiens, UniProt Q8N5S9)
# CDKL5 = CDKL5 (Homo sapiens, UniProt O76039)
# CSF1R = CSF1R (Homo sapiens, UniProt P07333)
# CSNK1G2 = CSNK1G2 (Homo sapiens, UniProt P78368)
# DAPK1 = DAPK1 (Homo sapiens, UniProt P53355)
# DAPK3 = DAPK3 (Homo sapiens, UniProt O43293)
# DCAMKL3 = DCAMKL3 (Homo sapiens, UniProt Q9C098)
# DDR2 = DDR2 (Homo sapiens, UniProt Q16832)
# DLK = DLK (Homo sapiens, UniProt Q12852)
# DYRK2 = DYRK2 (Homo sapiens, UniProt Q92630)
# EGFR(L861Q) = EGFR(L861Q) (Homo sapiens, UniProt P00533, L861Q)
# FES = FES (Homo sapiens, UniProt P07332)
# FLT1 = FLT1 (Homo sapiens, UniProt P17948)
# FLT3(N841I) = FLT3(N841I) (Homo sapiens, UniProt P36888, N841I)
# GSK3B = GSK3B (Homo sapiens, UniProt P49841)
# IGF1R = IGF1R (Homo sapiens, UniProt P08069)
# IKK-beta = IKK-beta (Homo sapiens, UniProt O14920)
# IRAK3 = IRAK3 (Homo sapiens, UniProt Q9Y616)
# MAP4K2 = MAP4K2 (Homo sapiens, UniProt Q12851)
# MAP4K3 = MAP4K3 (Homo sapiens, UniProt Q8IVH8)
# MAP4K4 = MAP4K4 (Homo sapiens, UniProt O95819)
# MARK3 = MARK3 (Homo sapiens, UniProt P27448)
# MEK6 = MEK6 (Homo sapiens, UniProt P52564)
# MET = MET (Homo sapiens, UniProt P08581)
# MST1 = MST1 (Homo sapiens, UniProt Q13043)
# MST4 = MST4 (Homo sapiens, UniProt Q9P289)
# MYLK4 = MYLK4 (Homo sapiens, UniProt Q86YV6)
# [1] = read-out: CPT-1-70-1 (1uM) % control
# [2] = read-out: HYJ-2-002-1 (1uM) % control
# Chain of FES (P07332 whole entry): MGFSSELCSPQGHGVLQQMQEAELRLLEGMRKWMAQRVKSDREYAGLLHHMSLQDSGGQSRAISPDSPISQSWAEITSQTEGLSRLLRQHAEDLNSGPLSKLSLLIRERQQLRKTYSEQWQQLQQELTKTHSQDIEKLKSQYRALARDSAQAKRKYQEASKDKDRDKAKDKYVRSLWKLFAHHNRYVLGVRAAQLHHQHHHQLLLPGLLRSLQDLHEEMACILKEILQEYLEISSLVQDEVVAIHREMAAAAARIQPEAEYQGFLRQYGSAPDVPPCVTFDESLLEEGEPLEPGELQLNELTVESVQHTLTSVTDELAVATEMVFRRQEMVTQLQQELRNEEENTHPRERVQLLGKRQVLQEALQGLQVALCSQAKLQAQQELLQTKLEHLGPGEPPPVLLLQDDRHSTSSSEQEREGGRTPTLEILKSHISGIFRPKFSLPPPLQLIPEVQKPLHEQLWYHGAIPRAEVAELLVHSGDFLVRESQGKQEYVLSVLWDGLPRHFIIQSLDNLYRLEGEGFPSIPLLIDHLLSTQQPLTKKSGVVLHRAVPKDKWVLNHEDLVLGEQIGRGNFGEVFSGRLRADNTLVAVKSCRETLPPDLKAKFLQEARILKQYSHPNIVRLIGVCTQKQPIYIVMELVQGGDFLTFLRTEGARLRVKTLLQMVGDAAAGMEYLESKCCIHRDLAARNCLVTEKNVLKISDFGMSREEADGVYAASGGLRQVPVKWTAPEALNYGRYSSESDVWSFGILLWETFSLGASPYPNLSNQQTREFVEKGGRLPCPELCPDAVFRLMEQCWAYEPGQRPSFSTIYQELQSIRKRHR
# Chain of MEK6 (P52564 whole entry): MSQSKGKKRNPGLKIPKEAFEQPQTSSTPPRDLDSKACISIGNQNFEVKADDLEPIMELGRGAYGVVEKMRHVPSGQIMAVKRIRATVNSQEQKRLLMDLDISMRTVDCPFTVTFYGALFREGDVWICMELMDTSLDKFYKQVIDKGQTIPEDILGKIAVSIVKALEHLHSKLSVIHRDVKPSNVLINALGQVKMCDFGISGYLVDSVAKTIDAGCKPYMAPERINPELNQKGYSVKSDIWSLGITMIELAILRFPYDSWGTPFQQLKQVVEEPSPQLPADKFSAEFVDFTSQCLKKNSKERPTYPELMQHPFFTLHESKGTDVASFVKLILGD
# Chain of DYRK2 (Q92630 whole entry): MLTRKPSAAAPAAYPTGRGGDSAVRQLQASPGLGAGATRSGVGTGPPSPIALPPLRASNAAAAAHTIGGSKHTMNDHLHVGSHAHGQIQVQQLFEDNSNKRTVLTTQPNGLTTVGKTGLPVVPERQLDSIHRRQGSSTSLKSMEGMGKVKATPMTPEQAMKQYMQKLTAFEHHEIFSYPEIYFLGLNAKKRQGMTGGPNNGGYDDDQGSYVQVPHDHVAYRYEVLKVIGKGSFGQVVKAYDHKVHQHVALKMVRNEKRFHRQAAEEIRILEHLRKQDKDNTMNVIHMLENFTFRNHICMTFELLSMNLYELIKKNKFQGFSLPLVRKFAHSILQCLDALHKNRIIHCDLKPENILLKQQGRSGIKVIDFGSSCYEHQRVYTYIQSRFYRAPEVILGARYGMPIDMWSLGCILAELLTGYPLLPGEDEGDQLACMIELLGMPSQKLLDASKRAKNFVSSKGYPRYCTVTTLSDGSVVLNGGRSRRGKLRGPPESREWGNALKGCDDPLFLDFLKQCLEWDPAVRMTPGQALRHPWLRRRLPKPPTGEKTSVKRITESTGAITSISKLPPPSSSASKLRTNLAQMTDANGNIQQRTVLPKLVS
# Chain of CSNK1G2 (P78368 whole entry): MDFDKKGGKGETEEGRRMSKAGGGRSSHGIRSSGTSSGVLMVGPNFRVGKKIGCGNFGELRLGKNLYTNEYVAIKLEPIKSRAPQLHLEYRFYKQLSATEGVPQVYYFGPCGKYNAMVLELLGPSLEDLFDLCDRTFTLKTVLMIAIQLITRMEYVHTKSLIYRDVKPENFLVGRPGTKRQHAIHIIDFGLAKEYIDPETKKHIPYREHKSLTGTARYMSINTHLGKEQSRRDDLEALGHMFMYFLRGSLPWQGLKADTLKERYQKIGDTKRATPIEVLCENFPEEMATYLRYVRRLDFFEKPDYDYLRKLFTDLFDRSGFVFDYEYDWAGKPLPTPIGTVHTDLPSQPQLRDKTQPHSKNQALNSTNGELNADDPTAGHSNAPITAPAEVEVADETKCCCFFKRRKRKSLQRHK
# Chain of MAP4K3 (Q8IVH8 whole entry): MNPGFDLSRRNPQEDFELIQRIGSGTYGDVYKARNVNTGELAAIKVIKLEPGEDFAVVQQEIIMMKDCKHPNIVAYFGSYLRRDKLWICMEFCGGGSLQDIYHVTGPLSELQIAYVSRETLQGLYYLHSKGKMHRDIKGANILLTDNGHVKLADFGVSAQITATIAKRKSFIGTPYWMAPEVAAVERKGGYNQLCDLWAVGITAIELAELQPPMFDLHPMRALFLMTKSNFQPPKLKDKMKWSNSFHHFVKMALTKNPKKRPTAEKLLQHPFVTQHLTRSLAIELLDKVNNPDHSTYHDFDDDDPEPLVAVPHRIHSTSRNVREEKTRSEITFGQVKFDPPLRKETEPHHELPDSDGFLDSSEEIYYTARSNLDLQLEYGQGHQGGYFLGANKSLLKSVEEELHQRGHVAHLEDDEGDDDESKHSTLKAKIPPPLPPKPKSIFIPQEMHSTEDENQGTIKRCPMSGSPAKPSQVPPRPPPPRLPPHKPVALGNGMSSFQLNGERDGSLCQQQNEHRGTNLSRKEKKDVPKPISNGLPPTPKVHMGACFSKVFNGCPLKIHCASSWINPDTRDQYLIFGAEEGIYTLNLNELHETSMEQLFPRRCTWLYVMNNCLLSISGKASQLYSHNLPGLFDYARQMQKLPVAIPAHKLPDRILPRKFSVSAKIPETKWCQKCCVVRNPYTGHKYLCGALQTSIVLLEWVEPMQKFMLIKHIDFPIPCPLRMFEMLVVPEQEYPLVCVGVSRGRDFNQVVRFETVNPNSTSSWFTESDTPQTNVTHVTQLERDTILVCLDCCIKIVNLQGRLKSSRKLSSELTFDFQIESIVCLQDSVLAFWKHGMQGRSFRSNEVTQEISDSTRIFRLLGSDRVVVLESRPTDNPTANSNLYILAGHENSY
# Chain of IGF1R (P08069 whole entry): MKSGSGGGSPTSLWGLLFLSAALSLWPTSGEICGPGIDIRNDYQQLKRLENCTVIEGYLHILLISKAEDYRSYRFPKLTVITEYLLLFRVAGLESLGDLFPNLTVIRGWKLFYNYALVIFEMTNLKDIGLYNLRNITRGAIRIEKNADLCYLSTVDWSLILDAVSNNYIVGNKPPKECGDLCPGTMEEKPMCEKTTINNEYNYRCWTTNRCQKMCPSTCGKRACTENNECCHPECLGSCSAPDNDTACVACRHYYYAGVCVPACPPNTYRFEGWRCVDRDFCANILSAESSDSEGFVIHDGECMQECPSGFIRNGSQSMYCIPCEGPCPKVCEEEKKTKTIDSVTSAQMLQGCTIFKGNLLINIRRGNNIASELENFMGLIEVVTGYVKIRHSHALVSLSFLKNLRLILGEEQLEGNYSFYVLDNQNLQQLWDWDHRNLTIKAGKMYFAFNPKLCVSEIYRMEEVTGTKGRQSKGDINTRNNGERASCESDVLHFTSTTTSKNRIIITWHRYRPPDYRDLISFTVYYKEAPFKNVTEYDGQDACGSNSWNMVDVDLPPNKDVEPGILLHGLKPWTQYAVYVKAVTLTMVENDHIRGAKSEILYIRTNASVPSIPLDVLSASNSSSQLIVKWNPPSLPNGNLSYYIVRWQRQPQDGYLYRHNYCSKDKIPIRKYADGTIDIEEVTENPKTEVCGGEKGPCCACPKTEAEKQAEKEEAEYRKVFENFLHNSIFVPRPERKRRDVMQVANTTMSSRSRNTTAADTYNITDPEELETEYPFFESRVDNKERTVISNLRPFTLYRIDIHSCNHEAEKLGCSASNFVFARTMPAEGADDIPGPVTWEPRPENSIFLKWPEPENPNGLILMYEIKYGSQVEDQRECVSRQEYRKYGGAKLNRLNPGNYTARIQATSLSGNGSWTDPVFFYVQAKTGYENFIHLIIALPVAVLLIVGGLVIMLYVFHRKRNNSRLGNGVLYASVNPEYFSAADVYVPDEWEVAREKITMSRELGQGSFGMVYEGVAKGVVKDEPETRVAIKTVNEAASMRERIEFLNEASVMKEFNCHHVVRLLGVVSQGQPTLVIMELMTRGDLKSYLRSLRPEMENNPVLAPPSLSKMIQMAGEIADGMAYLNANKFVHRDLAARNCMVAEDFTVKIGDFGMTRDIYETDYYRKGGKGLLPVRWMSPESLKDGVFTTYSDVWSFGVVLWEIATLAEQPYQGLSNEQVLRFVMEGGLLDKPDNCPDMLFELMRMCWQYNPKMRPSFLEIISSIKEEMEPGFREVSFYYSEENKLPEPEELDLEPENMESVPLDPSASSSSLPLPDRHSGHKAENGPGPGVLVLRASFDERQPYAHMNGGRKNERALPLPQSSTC
# Chain of DAPK3 (O43293 whole entry): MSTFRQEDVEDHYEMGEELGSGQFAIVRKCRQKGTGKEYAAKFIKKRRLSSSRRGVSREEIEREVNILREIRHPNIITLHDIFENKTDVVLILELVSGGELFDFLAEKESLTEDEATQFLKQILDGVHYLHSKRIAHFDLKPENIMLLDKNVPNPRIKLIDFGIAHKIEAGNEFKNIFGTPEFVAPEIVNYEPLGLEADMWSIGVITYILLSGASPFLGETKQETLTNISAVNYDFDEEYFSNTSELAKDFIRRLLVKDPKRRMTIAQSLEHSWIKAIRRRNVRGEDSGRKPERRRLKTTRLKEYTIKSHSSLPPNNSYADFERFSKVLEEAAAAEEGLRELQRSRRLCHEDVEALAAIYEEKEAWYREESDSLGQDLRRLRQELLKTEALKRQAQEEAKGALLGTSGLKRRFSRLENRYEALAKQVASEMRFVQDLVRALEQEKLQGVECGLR
compound,measurement,setting,value
CN1CCN(c2ccc(Nc3nc(Oc4ccc(NC(=O)CCl)cc4)c4cc[nH]c4n3)cc2)CC1 [CPT1-70-1],remaining activity at 1 µM,AKT3; [1],100%
same,remaining activity at 1 µM,ASK1; [1],100%
same,remaining activity at 1 µM,CAMK1G; [1],50%
same,remaining activity at 1 µM,CAMKK1; [1],84%
same,remaining activity at 1 µM,CDKL5; [1],100%
same,remaining activity at 1 µM,CSF1R; [1],12%
same,remaining activity at 1 µM,CSNK1G2; [1],0.7%
same,remaining activity at 1 µM,DAPK1; [1],86%
same,remaining activity at 1 µM,DAPK3; [1],59%
same,remaining activity at 1 µM,DCAMKL3; [1],56%
same,remaining activity at 1 µM,DDR2; [1],100%
same,remaining activity at 1 µM,DLK; [1],78%
same,remaining activity at 1 µM,DYRK2; [1],100%
same,remaining activity at 1 µM,EGFR(L861Q); [1],18%
same,remaining activity at 1 µM,FES; [1],73%
same,remaining activity at 1 µM,FLT1; [1],54%
same,remaining activity at 1 µM,FLT3(N841I); [1],1.2%
same,remaining activity at 1 µM,GSK3B; [1],98%
same,remaining activity at 1 µM,IGF1R; [1],62%
same,remaining activity at 1 µM,IKK-beta; [1],100%
same,remaining activity at 1 µM,IRAK3; [1],89%
same,remaining activity at 1 µM,MAP4K2; [1],25%
same,remaining activity at 1 µM,MAP4K3; [1],23%
same,remaining activity at 1 µM,MAP4K4; [1],49%
same,remaining activity at 1 µM,MARK3; [1],9.2%
same,remaining activity at 1 µM,MEK6; [1],55%
same,remaining activity at 1 µM,MET; [1],28%
same,remaining activity at 1 µM,MST1; [1],100%
same,remaining activity at 1 µM,MST4; [1],49%
same,remaining activity at 1 µM,MYLK4; [1],92%
CCN1CCN(Cc2ccc(NC(=O)c3ccc(C)c(CCc4cnc5[nH]ccc5c4OC)c3)cc2C(F)(F)F)CC1 [HYJ-2-002-1],remaining activity at 1 µM,AKT3; [2],100%
same,remaining activity at 1 µM,ASK1; [2],96%
same,remaining activity at 1 µM,CAMK1G; [2],94%
same,remaining activity at 1 µM,CAMKK1; [2],100%
same,remaining activity at 1 µM,CDKL5; [2],100%
same,remaining activity at 1 µM,CSF1R; [2],0.45%
same,remaining activity at 1 µM,CSNK1G2; [2],45%
same,remaining activity at 1 µM,DAPK1; [2],98%
same,remaining activity at 1 µM,DAPK3; [2],100%
same,remaining activity at 1 µM,DCAMKL3; [2],84%
same,remaining activity at 1 µM,DDR2; [2],0.05%
same,remaining activity at 1 µM,DLK; [2],86%
same,remaining activity at 1 µM,DYRK2; [2],96%
same,remaining activity at 1 µM,EGFR(L861Q); [2],0.85%
same,remaining activity at 1 µM,FES; [2],13%
same,remaining activity at 1 µM,FLT1; [2],10%
same,remaining activity at 1 µM,FLT3(N841I); [2],1.5%
same,remaining activity at 1 µM,GSK3B; [2],88%
same,remaining activity at 1 µM,IGF1R; [2],100%
same,remaining activity at 1 µM,IKK-beta; [2],0.3%
same,remaining activity at 1 µM,IRAK3; [2],100%
same,remaining activity at 1 µM,MAP4K2; [2],4.6%
same,remaining activity at 1 µM,MAP4K3; [2],40%
same,remaining activity at 1 µM,MAP4K4; [2],11%
same,remaining activity at 1 µM,MARK3; [2],100%
same,remaining activity at 1 µM,MEK6; [2],91%
same,remaining activity at 1 µM,MET; [2],59%
same,remaining activity at 1 µM,MST1; [2],89%
same,remaining activity at 1 µM,MST4; [2],98%
same,remaining activity at 1 µM,MYLK4; [2],100%
